From PMC5908160, “Inhibition of sperm motility in male macaques with EP055, a potential non-hormonal male contraceptive” (PLoS ONE, 2018)

Test system: rhesus macaque (Macaca mulatta) sperm
Assay: Sperm motility in rhesus males after i.v. infusion of EP055
Format: in vivo
Text: Semen was collected by direct penile stimulation with a P-T Electronics Model 303 PTE 110 Volt AC stimulator equipped with electrocardiogram pad electrodes (10–35 V, 20 ms duration, 18 pulses/sec) as previously described. Semen was collected weekly for 3 weeks to establish baseline parameters for each male. Samples were inspected visually to determine sperm motility and suitability for the study. Sperm motility data from male 28106 presented in S1 Table is representative of pre-treatment samples. Immediately after collection, the seminal plug was separated from the liquefied fraction, placed into a cryovial, flash frozen in liquid nitrogen, and stored at -80C until evaluation for drug levels. Spermatozoa were prepared by centrifugation (7 min, 200 g) of the liquid portion of the ejaculate and resuspending the sperm pellet in TALP-HEPES medium containing 0.3% bovine serum albumin at 37°C. An aliquot was taken to determine concentration using a hemocytometer, percent motility and forward progression as previously described. Baseline semen samples were collected from each male twice during the week prior to treatment. Semen was collected from each male 6–8 hr, 28–30 hr, and 78 hr post-infusion of low dose EP055 (75–80 mg/kg body weight) intravenously. After a one-week recovery period, a baseline semen sample was obtained, and the following week semen samples were collected as described above after an intravenous infusion of high dose EP055 (125–130 mg/kg).
Sperm were diluted in TALP-HEPES medium containing 0.3% bovine serum albumin to achieve 50-100 sperm per field. Videos were taken using an iPhone 6s Plus positioned 12 inches from a Dell model E170Sc 17-inch LCD monitor (1280 x 1024 pixels at 60 Hz, 0.264 mm) attached to an Olympus CK40 inverted microscope using 20x magnification (10x objective). The video camera collected images at a resolution of 1080 x 1920 pixels at 30 frames per second and 401 ppi with a typical contrast ratio of 1300:1 for at least 8 seconds. The pixel size was 1.2 microns and the videos in .mp4 or .mov format. Videos were converted to .avi format using Any Video Converter (version 6.06, http://www.anvsoft.com/any-video-converter-free, Ultimate Media Solutions, AnvSoft Inc). These files were uncompressed using VirtualDub (version 1.10.2, http://www.virtualdub.org/).
Images were analyzed using the MTrackJ plug in (version 1.5.1, https://imagescience.org/meijering/software/mtrackj/) for ImageJ (1.51K, https://fiji.sc/). Briefly, files were imported as uncompressed .avi files, converted to greyscale and saved as .TIFF files. Each image was calibrated by measuring a representative sperm head (acrosomal apex to midpiece) using the Straight Edge Tool, using 5.18 microns as the standard length of a Macaca mulatta sperm head. Approximately 50 sperm per video were manually tracked for the entire length of the track and the mean curvilinear velocity of each track calculated using the MEASURE function. Tracks used in the final analysis were a minimum of 0.4 seconds.
Prior to infusion of EP055, each male was sedated with ketamine by the surgical staff at ONPRC and transported to the operating room. After positioning in dorsal recumbency, the male was intubated and placed under inhalant (isoflurane) anesthesia. Bilateral intravenous catheters were placed in cephalic veins, one for infusion and one for back-up. A percutaneous arterial line was placed in the right femoral artery for direct blood pressure measurement. Invasive blood pressure, heart rate, SpO2, and respirations were monitored by the surgical staff throughout the procedure. Initially, the low doses of EP055 in 5% DMSO-PBS 7.6 was infused by i.v. at 75-80 mg/kg, using a Medfusion 3500 pump (Smiths Medical, St. Paul, MN), and was started at a low flow rate (0.6mg/kg/min). In 3 of 4 males, a 5-10% increase in blood pressure and heart rate were noted within the first 2-3 minutes of infusion of EP055. […]

[1] = high dose 125–130 mg/kg, post-infusion
[2] = male 25854, high dose 125–130 mg/kg, 6 hrs post-iv
[3] = male 25854, high dose 125–130 mg/kg, 30 hrs post-iv
[4] = male 25854, high dose 125–130 mg/kg, 78 hrs post-iv
[5] = male 25854, high dose 125–130 mg/kg, 318 hrs post-iv
[6] = male 25854, high dose 125–130 mg/kg, 390 hrs post-iv
[7] = male 25854, high dose 125–130 mg/kg, 558 hrs post-iv
[8] = male 25854, low dose 75–80 mg/kg, 6 hrs post-iv
[9] = male 25854, low dose 75–80 mg/kg, 30 hrs post-iv
[10] = male 25854, low dose 75–80 mg/kg, 78 hrs post-iv
[11] = male 25854, low dose 75–80 mg/kg, 1206 hrs post-iv
[12] = male 25854, low dose 75–80 mg/kg, 1254 hrs post-iv
[13] = male 28043, high dose 125–130 mg/kg, 6 hrs post-iv
[14] = male 28043, high dose 125–130 mg/kg, 28 hrs post-iv
[15] = male 28043, high dose 125–130 mg/kg, 78 hrs post-iv
[16] = male 28043, high dose 125–130 mg/kg, 360 hrs post-iv
[17] = male 28043, high dose 125–130 mg/kg, 408 hrs post-iv
[18] = male 28043, high dose 125–130 mg/kg, 528 hrs post-iv
[19] = male 28043, low dose 75–80 mg/kg, 6 hrs post-iv
[20] = male 28043, low dose 75–80 mg/kg, 30 hrs post-iv
[21] = male 28043, low dose 75–80 mg/kg, 78 hrs post-iv
[22] = male 28043, low dose 75–80 mg/kg, 480 hrs post-iv
[23] = male 28043, low dose 75–80 mg/kg, 648 hrs post-iv
[24] = male 28106, high dose 125–130 mg/kg, 6 hrs post-iv

## COC(=O)NNc1nc(Nc2ccc(NC(C)=O)c(O)c2)nc(SCC(=O)O)n1 [EP055]
High dose 125–130 mg/kg, 30 hours post-infusion
  normal motility: no normal motility was observed
[1]
  time at which recovery of sperm motility was obvious: ≤ 78 h
  time to full recovery of sperm motility in all animals: ≤ 18 days
High dose 125–130 mg/kg, within 6 hours post-infusion, mean of 4 animals
  sperm motility: approximately 20%
Low dose 75–80 mg/kg, by 30 hours post-infusion, mean of 4 animals
  normal sperm motility: below 32%
[2]
  F1: 5%
  F2: 80%
  Static: 15%
  VCL ± SEM: 104.6 ± 6.9 um/sec
[3]
  Clumps: Yes
  F1: 10%
  F2: 60%
  Static: 30%
  VCL ± SEM: 120.9 ± 4.8 um/sec
[4]
  Clumps: Few
  F1: 20%
  F2: 25%
  Static: 55%
  VCL ± SEM: 94.2 ± 5.0 um/sec
[5]
  F1: 20%
  F2: 20%
  F3+F4: 10%
  Static: 50%
[6]
  F1: 10%
  F3+F4: 70%
  Static: 20%
  VCL ± SEM: 93.2 ± 5.0 um/sec
[7]
  F1: 1%
  F3+F4: 90%
  Static: 9%
[8]
  Clumps: Few
  F1: 10%
  F3+F4: 70%
  Static: 20%
[9]
  Clumps: Fewer
  F1: 5%
  F3+F4: 80%
  Static: 15%
[10]
  Clumps: Yes
  F1: <1%
  F3+F4: 95%
  Static: 5%
[11]
  F1: 2%
  F3+F4: 83%
  Static: 15%
[12]
  F3+F4: 80%
  Static: 20%
[13]
  Clumps: Yes
  F1: 25%
  F3+F4: 50%
  Static: 25%
[14]
  Clumps: Yes
  F1: 99%
  F3+F4: <1%
  VCL ± SEM: 72.1 ± 12.4 um/sec
[15]
  Clumps: Few
  F1: 10%
  F3+F4: 60%
  Static: 30%
  VCL ± SEM: 117.5 ± 16.3. um/sec
[16]
  F1: 10%
  F3+F4: 65%
  Static: 25%
[17]
  Clumps: Yes
  F1: 5%
  F3+F4: 70%
  Static: 25%
[18]
  F2: 5%
  F3+F4: 80%
  Static: 15%
  VCL ± SEM: 135.0 ± 12.6 um/sec
[19]
  Clumps: Few
  F3+F4: 75%
  Static: 25%
[20]
  Clumps: Yes
  F1: 20%
  F3+F4: 30%
  Static: 50%
[21]
  Clumps: Yes
  F1: 20%
  F2: 50%
  Static: 30%
[22]
  F3+F4: 80%
  Static: 20%
[23]
  F1: 5%
  F3+F4: 80%
  Static: 15%
[24]
  Clumps: Yes
  F1: 55%
